Laboratory results as given in ChEMBL document CHEMBL1139045, “Design and synthesis of a novel class of dual PPARgamma/delta agonists” (Bioorg Med Chem Lett, 2007).

How the values were obtained:
[1] = target: T1, Peroxisome proliferator-activated receptor alpha (Homo sapiens, UniProt Q07869)
T1 sequence (Q07869 whole entry): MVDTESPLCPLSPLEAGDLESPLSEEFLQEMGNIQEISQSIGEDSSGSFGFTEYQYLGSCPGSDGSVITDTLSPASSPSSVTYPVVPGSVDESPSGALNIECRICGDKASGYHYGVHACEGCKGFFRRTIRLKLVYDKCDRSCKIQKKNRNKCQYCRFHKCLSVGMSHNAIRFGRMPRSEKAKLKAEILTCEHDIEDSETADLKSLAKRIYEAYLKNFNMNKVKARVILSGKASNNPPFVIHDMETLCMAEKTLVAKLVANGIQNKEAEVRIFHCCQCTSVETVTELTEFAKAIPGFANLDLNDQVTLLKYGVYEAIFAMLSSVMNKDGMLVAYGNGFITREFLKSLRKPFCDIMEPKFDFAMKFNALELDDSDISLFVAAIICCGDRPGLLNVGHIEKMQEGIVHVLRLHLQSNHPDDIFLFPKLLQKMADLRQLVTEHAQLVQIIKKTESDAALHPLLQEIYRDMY

[2] = target: T2, Peroxisome proliferator-activated receptor delta (Homo sapiens, UniProt Q03181); type: functional, cell-based, CV-1
T2 sequence (Q03181 whole entry): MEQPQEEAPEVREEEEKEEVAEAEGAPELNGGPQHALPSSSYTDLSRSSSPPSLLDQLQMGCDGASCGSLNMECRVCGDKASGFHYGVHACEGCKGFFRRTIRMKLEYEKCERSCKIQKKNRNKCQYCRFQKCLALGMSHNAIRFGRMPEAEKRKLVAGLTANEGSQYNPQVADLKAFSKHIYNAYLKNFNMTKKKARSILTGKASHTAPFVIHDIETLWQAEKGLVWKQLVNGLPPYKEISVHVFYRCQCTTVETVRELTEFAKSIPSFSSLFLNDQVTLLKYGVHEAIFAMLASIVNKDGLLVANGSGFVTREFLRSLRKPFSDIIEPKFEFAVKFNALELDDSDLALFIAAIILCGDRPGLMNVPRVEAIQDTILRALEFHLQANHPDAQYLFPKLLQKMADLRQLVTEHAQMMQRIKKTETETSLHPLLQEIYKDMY

[3] = target: T1, Peroxisome proliferator-activated receptor alpha; type: functional, cell-based, CV-1
[4] = in vivo; details: db/db, mouse
[5] = target: T2, Peroxisome proliferator-activated receptor delta
[6] = in vivo; details: Sprague-Dawley, rat, po, 12 mg/kg
[7] = in vivo; details: Sprague-Dawley, rat, po, 12 mg/kg; remark: listed apart in the source
[8] = in vivo; details: Sprague-Dawley, rat, iv, 1 mg/kg
[9] = in vivo; details: Sprague-Dawley, rat, po, 12 mg/kg; remark: listed apart in the source

IC50 [1] [µM]	EC50 [2] [nM]	EC50 [3] [nM]	IC50 [5] [nM]	SMILES	also measured
6.09	6	2630	3	CCc1cc(OCC[C@@H](C)Oc2ccc(C(F)(F)F)cc2-c2ccccn2)ccc1CCC(=O)O	concentration at 1 h [4]: 4200 ng/mL
4.1		2680		CCc1ccc(O[C@H](C)CCOc2ccc(CCC(=O)O)c(C)c2)c(-c2cscn2)c1	
4.99		2810		CCc1ccc(O[C@H](C)CCOc2ccc(CCC(=O)O)c(C)c2)c(-c2cocn2)c1	
		2900		CCc1ccc(O[C@H](C)CCOc2ccc(CCC(=O)O)c(C)c2)c(-c2cccnc2)c1	
5.88	6	2340	4	Cc1cc(OCC[C@@H](C)Oc2ccc(C(F)(F)F)cc2-c2ccccn2)ccc1CCC(=O)O	
7.35	7		3	CCc1ccc(O[C@H](C)CCOc2ccc(CCC(=O)O)c(CC)c2)c(-c2ccccn2)c1	AUC [6]: 75500 ng·h/mL; bioavailability [7]: 71%; clearance [8]: 1.9 mL/min/kg; half-life [9]: 180 min
4.5		2800		CCc1ccc(O[C@H](C)CCOc2ccc(CCC(=O)O)c(C)c2)c(-c2ccco2)c1	
10.4		2890		CCc1ccc(O[C@H](C)CCOc2ccc(CCC(=O)O)c(C)c2)c(-c2ncco2)c1	
5.95				CCc1ccc(O[C@H](C)CCOc2ccc(CCC(=O)O)c(C)c2)c(-c2ccsc2)c1	
